Earlier results in patent US20040005304A1, “Novel compositions and methods for treating neurological disorders and associated gastrointestinal conditions” (MAK Wood, Inc., priority 2002, published 2004).

Test system: DPPIV
Conditions: cultured mouse intestinal wall cells (enterocyte cells)

Structure (SMILES): O=C[C@H](O)[C@@H](O)[C@@H](O)[C@H](O)CO [galactose]
- expression of DPPIV: increase the expression of DPPIV
